The Km is the concentration of substrate that gives half-maximal velocity.

Km data for one compound are collected here from PMC6337169, “Catechol 1,2-Dioxygenase is an Analogue of Homogentisate 1,2-Dioxygenase in Pseudomonas chlororaphis Strain UFB2” (International Journal of Molecular Sciences, 2018).

This test deals with T1, catechol 1,2-dioxygenase (C12O) from PcUFB2; identified by ES-MS as homogentisate 1,2-dioxygenase (H12D).
T1 construct: gene hmgA; native purification from UFB2 cells grown on phenol (ANX anion exchange, Sephacryl HR100); 35 kDa on SDS-PAGE
The test can be described thus: UV spectrophotometry, cis,cis-muconic acid at […] nm; Lineweaver-Burk / Michaelis-Menten fit. It is filed as biochemical, Pseudomonas chlororaphis. The following applies: 50 mM sodium phosphate pH 8, 30 °C, 30 min, 0-500 µM catechol.

On to `Oc1ccccc1O` [catechol], for which the Km worked out at 35.8 µM.
